{"source": "patent US20170326154A1", "about": "“Pre-Operative Composition for Sedation or Analgesia” (priority 2016, published 2017)", "origin": "cited, not measured here", "key": {"[1]": {"conditions": "basic drug, nitrogen atom in the imidazole ring"}}, "note": "Where two headings read alike, the source gives them in different places.", "data": [{"smiles": "Cc1ncc2n1-c1ccc(Cl)cc1C(c1ccccc1F)=NC2", "note": "[Midazolam, 8-chloro-6-(2′-fluorophenyl)-1-methyl-4H-imidazo[1,5-a][1,4]-benzodiazepine]", "values": [{"measurement": "adequate sedation within (time)", "setting": "intranasal administration", "value": "10 to 15", "unit": "min"}, {"measurement": "adequate sedation within (time)", "setting": "oral administration", "value": "10 to 20", "unit": "min"}, {"measurement": "pKa value", "setting": "[1]", "value": "5.5 and 6.2"}]}]}
